Results on three molecules are retold here after patent US12673063B2, “Methods and materials for treatment of fibrosis” (Massachusetts Eye and Ear Infirmary, priority 2020, dated 2026).

Series [1] concerns A549 cells. Nature of the series: CyQUANT Direct Cell Proliferation Assay, A549. In kind it is cell-based, human. The settings on record: for percent live cells compared to vehicle treated: 48 hours, Ro5-3335 150 μM, Ro24-7429 50 μM-200 μM, Pirfenidone 500 μg/ml, Nintedanib 5 μM; for anti-proliferative effect: 150 μM. Here is the method:
Human type II alveolar epithelial cells (A549) were a generous gift from Dr. Lagares (Mass General Hospital). Cells were maintained in low glucose-DMEM containing 10% FBS, 2 mM L-glutamine, 100 U/ml penicillin and 100 μg/ml streptomycin at 37° C. in a humidified 5% C02 atmosphere. Confluent cultures of cells were pretreated with Ro24-7429 for 24 hours followed by stimulation with 5 ng/ml of TGF-β1.
(§1) We tested the effect of RUNX1 inhibition on the proliferation of a human alveolar basal epithelial cell line (A549), primary human-derived pulmonary alveolar epithelial cells (HPAEpi), and in human-derived primary culture lung fibroblasts (HLF). For specific analyses we used escalating doses of Ro24-7429 (50-200 μM), Ro5-3335 (150 μM), pirfenidone (500 μg/ml) and nintedanib (5 μM), the latter two are currently approved drugs for IPF.

Series [2] relates to human lung fibroblasts (HLF). Description: CyQUANT Direct Cell Proliferation Assay, HLF. In kind it is cell-based. The note with it: 72 hours, 150 μM.
Description: as §1, with “We conducted mechanistic studies in cell culture to examine the cellular and molecular mechanisms underlying the robust effects of RUNX1 inhibition in the protection against bleomycin-induced lung injury. We” for “We”

In series [3] the test system is A549 cells. Nature of the series: Lactate dehydrogenase (LDH) cell death assay, A549. The note with it: for cell death: 500μ g/ml. Type of series: cell-based. Here is the method: Human type II alveolar epithelial cells (A549) were a generous gift from Dr. Lagares (Mass General Hospital). Cells were maintained in low glucose-DMEM containing 10% FBS, 2 mM L-glutamine, 100 U/ml penicillin and 100 μg/ml streptomycin at 37° C. in a humidified 5% C02 atmosphere.
We tested the effect of RUNX1 inhibition on the proliferation of a human alveolar basal epithelial cell line (A549), primary human-derived pulmonary alveolar epithelial cells (HPAEpi), and in human-derived primary culture lung fibroblasts (HLF).

Series [4] deals with human lung fibroblasts (HLF). Description: Lactate dehydrogenase (LDH) cell death assay, HLF. In kind it is cell-based. The settings on record: Ro24-7429 50-200 μM, Ro5-3335 150 μM.
Description: as §1, with “We conducted mechanistic studies in cell culture to examine the cellular and molecular mechanisms underlying the robust effects of RUNX1 inhibition in the protection against bleomycin-induced lung injury. We” for “We”

On to `O=C1CN=C(c2ccc[nH]2)c2cc(Cl)ccc2N1` [Ro5-3335, [7-chloro-5-(2-pyrryl)-3H-1,4 benzodiazapin-2-(H)-one]], for which, in the series with A549 cells [1], the “percent live cells compared to vehicle treated” value (shortened to “percent live cells”) is reported as “significant reduction”. The anti-proliferative effect was 32% in the series on A549 cells [1] (A549, 48 hours) and 50% with A549 cells [1] (A549, 72 hours). Moreover, the reduction in proliferation in series [2] was 40%. Further, the “cell death by LDH analysis” value was “Very low levels of cell death” in the series with A549 cells [3] (A549, Ro24-7429 50-200 μM, Ro5-3335 150 μM) and “Very low levels of cell death” in series [4].

Turning to `Cc1ccc(=O)n(-c2ccccc2)c1` [pirfenidone], in the series on A549 cells [1], the “percent live cells” value is listed as “significant reduction”. In addition, the cell death was 8% in the series with A549 cells [3] (A549, 48 hours) and 11% in the series on A549 cells [3] (A549, 72 hours).

For the molecule `COC(=O)c1ccc2c(c1)NC(=O)/C2=C(\Nc1ccc(N(C)C(=O)CN2CCN(C)CC2)cc1)c1ccccc1` [nintedanib], the “percent live cells” value with A549 cells [1] is on record as “significant reduction”.
